# Assay results from ChEMBL document CHEMBL4020825, “Optimization of Potent and Selective Tricyclic Indole Diazepinone Myeloid Cell Leukemia-1 Inhibitors Using Structure-Based Design” (J Med Chem, 2018).
# “And” between values parts separate entries of the source, which are not always exact repeats. Identical values can stand only once.
# Legend:
# [1] = system: MV4-11; assay: cells; settings: Homo sapiens, MV4-11, 72 h
# [2] = cells; settings: Homo sapiens, ALMC2, 72 h
# [3] = target: Induced myeloid leukemia cell differentiation protein Mcl-1 (Homo sapiens, UniProt Q07820)
# Sequence of Induced myeloid leukemia cell differentiation protein Mcl-1 (Q07820 whole entry): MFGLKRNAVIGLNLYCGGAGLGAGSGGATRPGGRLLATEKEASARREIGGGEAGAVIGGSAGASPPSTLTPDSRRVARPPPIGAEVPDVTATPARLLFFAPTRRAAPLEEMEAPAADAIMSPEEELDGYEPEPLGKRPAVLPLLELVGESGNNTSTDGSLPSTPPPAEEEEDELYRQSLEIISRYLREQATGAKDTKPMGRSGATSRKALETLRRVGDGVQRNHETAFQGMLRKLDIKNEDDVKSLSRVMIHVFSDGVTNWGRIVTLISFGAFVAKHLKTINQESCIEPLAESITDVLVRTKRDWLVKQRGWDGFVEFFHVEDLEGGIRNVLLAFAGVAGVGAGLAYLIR
# Description: Inhibition of FITC-Bak-BH3/FITC-Bim-BH3 binding to MCL1 (172 to 327 residues) (unknown origin) expressed in Escherichia coli BL21 CodonPlus (DE3) RIL after 1.5 hrs by fluorescence polarization assay
# [4] = system: OPM-2; assay: cells; settings: Homo sapiens, OPM-2, 72 h
# [5] = system: NCI-H929; assay: cells; settings: Homo sapiens, NCI-H929, 72 h
# [6] = cells; settings: Homo sapiens, ALMC1, 72 h
# [7] = in vitro; settings: human, K562 cells
# [8] = target: Bcl-2-like protein 1 (Homo sapiens, UniProt Q07817)
# Sequence of Bcl-2-like protein 1 (Q07817 whole entry): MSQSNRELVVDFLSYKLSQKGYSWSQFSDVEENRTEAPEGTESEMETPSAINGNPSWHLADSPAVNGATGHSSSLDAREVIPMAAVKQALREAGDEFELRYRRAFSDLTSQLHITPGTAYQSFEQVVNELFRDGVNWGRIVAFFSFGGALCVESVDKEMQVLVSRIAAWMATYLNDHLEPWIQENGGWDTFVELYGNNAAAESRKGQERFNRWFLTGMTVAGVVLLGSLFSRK
# Description: Inhibition of FITC-Bak-BH3 binding to Bcl-XL (unknown origin) after 1.5 hrs by fluorescence polarization assay
# [9] = target: Apoptosis regulator Bcl-2 (Homo sapiens, UniProt P10415)
# Sequence of Apoptosis regulator Bcl-2 (P10415 whole entry): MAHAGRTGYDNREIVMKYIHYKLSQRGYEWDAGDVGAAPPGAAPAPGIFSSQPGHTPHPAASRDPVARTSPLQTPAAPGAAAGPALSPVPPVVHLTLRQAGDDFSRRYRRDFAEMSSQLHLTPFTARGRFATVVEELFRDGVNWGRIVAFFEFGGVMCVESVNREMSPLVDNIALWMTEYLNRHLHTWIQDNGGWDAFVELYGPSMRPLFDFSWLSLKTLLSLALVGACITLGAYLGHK
# Description: Inhibition of FITC-Bak-BH3 binding to Bcl2 (unknown origin) after 1.5 hrs by fluorescence polarization assay
# [10] = physchem; settings: PAMPA
# Description: Passive permeability of the compound by PAMPA
# [11] = system: NCI-H929
Structure (SMILES),GI50 [5] [µM],GI50 at 72 h [7] [µM],Ki [8] [µM],Ki [9] [µM],Papp [10] [×10⁻⁶ cm/s],other results
Cc1cc(OCCCc2c3n(c4c(-c5c(C)nn(C)c5C)c(Cl)ccc24)CCCN(c2cc(C(=O)O)c4ccn(C)c4c2)C3=O)cc(C)c1Cl,1.4 to 1.6,11 to 11.5,19,0.58,21,GI50 [1]: 0.77 µM; GI50 [2]: 3.2 µM; GI50 [4]: 1.4 µM; GI50 [6]: 1.5 µM
Cc1cc(OCCCc2c(C(=O)NCc3ccc(C(=O)O)o3)[nH]c3ccccc23)cc(C)c1Cl,–,–,–,–,–,Ki [3]: 0.069 µM
Cc1cc(OCCCc2c(C(=O)NCCC(=O)O)[nH]c3ccccc23)cc(C)c1Cl,–,–,–,–,–,Ki [3]: 0.57 µM
Cc1cc(OCCCc2c(C(=O)NCC(=O)O)[nH]c3ccccc23)cc(C)c1Cl,–,–,–,–,–,Ki [3]: 0.62 µM
Cc1cc(OCCCc2c(C(=O)Nc3cccc(C(=O)O)n3)[nH]c3c(-c4c(C)nn(C)c4C)c(Cl)ccc23)cc(C)c1Cl,–,–,–,–,< 1.6,–
COC(=O)CNC(=O)c1[nH]c2ccccc2c1CCCOc1cc(C)c(Cl)c(C)c1,–,–,–,–,–,Ki [3]: 3.2 µM
Cc1cc(OCCCc2c(C(=O)Nc3ccc(C(=O)O)cn3)[nH]c3c(-c4c(C)nn(C)c4C)c(Cl)ccc23)cc(C)c1Cl,–,–,–,–,< 2.3,–
Cc1cc(OCCCc2c(C(=O)NCc3cc(C(=O)O)ccn3)[nH]c3c(-c4c(C)nn(C)c4C)cccc23)cc(C)c1Cl,–,–,–,–,< 1.2,–
Cc1cc(OCCCc2c(C(=O)Nc3ccc(C(=O)O)o3)[nH]c3c(-c4c(C)nn(C)c4C)c(Cl)ccc23)cc(C)c1Cl,–,–,–,–,2.3,–
Cc1cc(OCCCc2c(C(=O)Nc3cc(C(=O)O)ccn3)[nH]c3c(-c4c(C)nn(C)c4C)c(Cl)ccc23)cc(C)c1Cl,–,–,–,–,< 3.3,–

# Further lines, with some results ahead:
GI50 [5] [µM],GI50 at 72 h [7] [µM],Ki [8] [µM],Ki [9] [µM],Papp [10] [×10⁻⁶ cm/s],Structure (SMILES),other results
10,10,–,–,–,Cc1cc(OCCCc2c3n(c4c(-c5c(C)nn(C)c5C)cc(Cl)cc24)CCCN(c2cc(C(=O)O)cc4c2ccn4C)C3=O)cc(C)c1Cl,GI50 [1]: 9.1 µM; GI50 [2]: 12 µM; Ki [3]: 0.13 µM; GI50 [4]: 8.9 µM; GI50 [6]: 7.7 µM
–,–,–,–,307,Cc1cc(OCCCc2c3n(c4c(-c5c(C)nn(C)c5C)c(Cl)ccc24)CCCN(c2cccc(C(=O)O)c2)C3=O)cc(C)c1Cl,–
–,–,–,–,< 7.6,Cc1cc(OCCCc2c(C(=O)NCc3cccc(C(=O)O)c3)[nH]c3c(-c4c(C)nn(C)c4C)c(Cl)ccc23)cc(C)c1Cl,–
–,–,–,–,143,Cc1cc(OCCCc2c3n(c4c(-c5c(C)nn(C)c5C)c(Cl)ccc24)CCCN(Cc2cccc(C(=O)O)c2)C3=O)cc(C)c1Cl,–
5.7,> 12.5,> 36,0.44,4.8,Cc1cc(OCCCc2c3n(c4c(-c5c(C)nn(C)c5C)c(Cl)ccc24)CCCN(c2ccc(C(=O)O)c4ccn(C)c24)C3=O)cc(C)c1Cl,–
1,> 9.2,21,0.31,–,Cc1cc(OCCCc2c3n(c4c(-c5c(C)nn(C)c5C)c(Cl)ccc24)CCCN(c2cn(C)c4c(C(=O)O)cccc24)C3=O)cc(C)c1Cl,–
–,–,–,–,< 1,Cc1cc(OCCCc2c(C(=O)Nc3cncc(C(=O)O)c3)[nH]c3c(-c4c(C)nn(C)c4C)c(Cl)ccc23)cc(C)c1Cl,–
6.1,> 12.5,> 36,0.52,–,Cc1cc(OCCCc2c3n(c4c(-c5c(C)nn(C)c5C)c(Cl)ccc24)CCCN(c2cc(C(=O)O)cc4ccn(C)c24)C3=O)cc(C)c1Cl,–
2.3,> 12.5,> 36,0.55,63,Cc1cc(OCCCc2c3n(c4c(-c5c(C)nn(C)c5C)c(Cl)ccc24)CCCN(c2cc(C(=O)O)cc4c2OCO4)C3=O)cc(C)c1Cl,–
1,5.7,11,0.25,4.4,Cc1cc(OCCCc2c3n(c4c(-c5c(C)nn(C)c5C)c(Cl)ccc24)CCCN(c2cccc4c(C(=O)O)cccc24)C3=O)cc(C)c1Cl,–
0.3,> 12.5,26,0.56,–,Cc1cc(OCCCc2c3n(c4c(-c5c(C)nn(C)c5C)c(Cl)ccc24)CCCN(c2cn(C)c4ccc(C(=O)O)cc24)C3=O)cc(C)c1Cl,GI50 [11]: 0.28 µM and 0.33 µM
6,7.7,–,–,–,Cc1cc(OCCCc2c3n(c4c(-c5c(C)nn(C)c5C)cc(Cl)cc24)CCCN(c2cc(C(=O)O)c4ccn(C)c4c2)C3=O)cc(C)c1Cl,GI50 [1]: 6.2 µM; GI50 [2]: 9.9 µM; Ki [3]: 0.094 µM; GI50 [4]: 5.7 µM; GI50 [6]: 6.6 µM
0.33,5.8,> 36,0.53,–,Cc1cc(OCCCc2c3n(c4c(-c5c(C)nn(C)c5C)c(Cl)ccc24)CCCN(c2cn(C)c4cc(C(=O)O)ccc24)C3=O)cc(C)c1Cl,–
–,–,–,–,1.2,Cc1cc(OCCCc2c(C(=O)Nc3ccc(C(=O)O)cc3)[nH]c3c(-c4c(C)nn(C)c4C)c(Cl)ccc23)cc(C)c1Cl,–
3.3,6.2,> 36,0.49,122,Cc1cc(OCCCc2c3n(c4c(-c5c(C)nn(C)c5C)c(Cl)ccc24)CCCN(c2ccc(C(=O)O)c4cccnc24)C3=O)cc(C)c1Cl,–
